Where two headings read alike, the source gives them in different places.

The conditions of the data set: for concentration in plasma (molar) / concentration in plasma / concentration in lung tissue: 4 h after administration, respective extract 1000 mg/kg p.o.; for concentration in plasma / concentration in lung tissue: mean ± SD; for calculated concentration in lung tissue (molar): on the basis of lung water content approximately 80 % by weight.
The mark [1] stands for this setting: Day 1, infected hamsters, n = 4.

For the molecule `COc1cc(O)c(C(=O)[C@@H]2[C@H](CC=C(C)C)C(C)=CC[C@H]2c2ccccc2)c(O)c1` [Panduratin A, panduratin A], for the setting “Day 1”, the “concentration in plasma (molar)” value was roughly 4.21 µM, the “concentration in lung tissue” value worked out at 0.186 ± 0.015 µg/g and the “calculated concentration in lung tissue (molar)” value (“calculated concentration” below) is 0.37 µM. Besides, the concentration in plasma under setting [1] was found to be 1710.4 ± 284.3 ng/mL. Besides, where the note is “Day 3”, the “concentration in plasma (molar)” value is roughly 7.27 µM, the “concentration in lung tissue” value was 0.262 ± 0.047 µg/g, the concentration in plasma was 2954.1 ± 582.1 ng/mL and the “calculated concentration” value is 0.52 µM. In addition, the “average concentrations in lung tissue” value (range over sampling days, respective extract 1000 mg/kg/day p.o.) lay in the range of 0.19 to 0.26 µg/g.

Take `C=C1CC[C@@H]2[C@](C)(CO)[C@H](O)CC[C@@]2(C)[C@@H]1C/C=C1/C(=O)OC[C@H]1O` [Andrographolide, andrographolide]: where the note is “Day 1”, the “concentration in plasma (molar)” value was roughly 5.48 µM, the “concentration in lung tissue” value came out at 0.750 ± 0.206 µg/g and the “calculated concentration” value was 1.72 µM. Under setting [1], this molecule returned a concentration in plasma of 1921.3 ± 508.4 ng/mL. In addition, under “Day 3”, the “concentration in plasma (molar)” value was roughly 5.51 µM, the “concentration in lung tissue” value came out at 0.800 ± 0.144 µg/g, the concentration in plasma is 1930.1 ± 257.7 ng/mL and the “calculated concentration” value is 1.83 µM. Under “Day 7”, the “concentration in plasma (molar)” value is roughly 8.01 µM, the “concentration in lung tissue” value stood at 0.850 ± 0.181 µg/g, the concentration in plasma was 2808.1 ± 547.4 ng/mL and the “calculated concentration” value was roughly 1.94 µM.

The values are drawn from article PMC11752117 (Journal of Traditional and Complementary Medicine, 2024).
